Measured values taken from patent US20240293343A1, “Benzylideneaminoguanidine derivatives as NR2B-selective NMDA receptor antagonists and their therapeutic applications” (InFlectis BioScience, priority 2023, published 2024).
Read-outs that look alike come from different tables or passages of the source.

Tests used:
[1] = molecular target: T1, glycine binding to the NMDAR NR1 subunit (Rattus norvegicus, UniProt P35439); experiment: NMDAR radiolabeled ligand displacement assay, MDL-105,519; details: glycine site
T1 construct: tissue Eurofins 232910/233010/234000/SafetyScreen44 Panel

[2] = molecular target: T2, Ifenprodil binding site on the NR2B subunit (Rattus norvegicus, UniProt P35439+Q00960); experiment: NMDAR radiolabeled ligand displacement assay, Ifenprodil
T2 construct: tissue Eurofins 232910/233010/234000/SafetyScreen44 Panel; host or cells: rat cerebral cortex
T2 sequence (Q00960 27-1482, other chains not shown): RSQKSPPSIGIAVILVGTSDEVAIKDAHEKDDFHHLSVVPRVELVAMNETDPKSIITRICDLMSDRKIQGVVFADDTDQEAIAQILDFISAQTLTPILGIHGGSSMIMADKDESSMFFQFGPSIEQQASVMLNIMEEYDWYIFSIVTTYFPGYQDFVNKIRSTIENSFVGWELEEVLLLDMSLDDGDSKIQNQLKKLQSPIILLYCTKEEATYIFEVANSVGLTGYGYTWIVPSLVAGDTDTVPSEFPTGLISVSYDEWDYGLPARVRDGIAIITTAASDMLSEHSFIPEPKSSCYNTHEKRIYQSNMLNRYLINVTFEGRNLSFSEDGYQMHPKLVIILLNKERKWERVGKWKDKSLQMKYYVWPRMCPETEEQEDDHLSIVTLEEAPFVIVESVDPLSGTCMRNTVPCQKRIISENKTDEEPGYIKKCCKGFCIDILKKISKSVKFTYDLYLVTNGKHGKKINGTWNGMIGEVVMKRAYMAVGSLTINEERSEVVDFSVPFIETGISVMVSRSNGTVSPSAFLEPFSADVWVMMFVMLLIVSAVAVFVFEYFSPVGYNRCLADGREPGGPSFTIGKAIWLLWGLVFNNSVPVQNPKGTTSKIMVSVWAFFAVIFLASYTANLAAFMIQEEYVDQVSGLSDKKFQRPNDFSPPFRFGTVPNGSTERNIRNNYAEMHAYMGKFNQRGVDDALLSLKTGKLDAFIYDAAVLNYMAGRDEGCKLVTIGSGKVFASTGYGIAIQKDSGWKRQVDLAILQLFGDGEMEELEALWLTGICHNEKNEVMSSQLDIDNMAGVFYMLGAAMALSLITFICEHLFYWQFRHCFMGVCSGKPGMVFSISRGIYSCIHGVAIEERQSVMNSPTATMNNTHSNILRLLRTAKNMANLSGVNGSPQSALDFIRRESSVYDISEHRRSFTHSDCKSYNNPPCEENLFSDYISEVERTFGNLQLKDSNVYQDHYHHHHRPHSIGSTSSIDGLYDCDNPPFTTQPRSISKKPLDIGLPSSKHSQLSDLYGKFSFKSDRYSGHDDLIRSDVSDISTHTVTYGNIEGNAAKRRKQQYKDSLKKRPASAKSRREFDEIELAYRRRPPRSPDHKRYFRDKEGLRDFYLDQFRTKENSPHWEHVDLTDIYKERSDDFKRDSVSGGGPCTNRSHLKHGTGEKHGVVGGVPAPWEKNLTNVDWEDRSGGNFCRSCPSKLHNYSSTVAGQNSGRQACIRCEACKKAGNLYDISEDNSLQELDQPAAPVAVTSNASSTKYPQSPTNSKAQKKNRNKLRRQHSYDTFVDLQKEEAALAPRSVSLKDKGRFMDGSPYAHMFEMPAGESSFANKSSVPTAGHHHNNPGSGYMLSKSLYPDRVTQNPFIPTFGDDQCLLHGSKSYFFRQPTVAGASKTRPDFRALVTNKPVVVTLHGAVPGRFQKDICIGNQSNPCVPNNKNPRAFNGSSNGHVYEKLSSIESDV

NMDAR (NR1A/NR2B) = molecular target: T3, NMDAR (NR1A/NR2B) (Homo sapiens, UniProt Q05586+Q13224); experiment: NMDAR (NR1A/NR2B) Human Glutamate Ion Channel Cell Based Antagonist Ca2+ Flux Assay; details: Hek293 cells expressing NMDAR subunit 1A/2B, FLIPR Tetra; read-out: IC50, antagonist activity on Ca^2+ flux
T3 construct: host or cells: HEK293
T3 sequence (Q13224 27-1484, other chains not shown): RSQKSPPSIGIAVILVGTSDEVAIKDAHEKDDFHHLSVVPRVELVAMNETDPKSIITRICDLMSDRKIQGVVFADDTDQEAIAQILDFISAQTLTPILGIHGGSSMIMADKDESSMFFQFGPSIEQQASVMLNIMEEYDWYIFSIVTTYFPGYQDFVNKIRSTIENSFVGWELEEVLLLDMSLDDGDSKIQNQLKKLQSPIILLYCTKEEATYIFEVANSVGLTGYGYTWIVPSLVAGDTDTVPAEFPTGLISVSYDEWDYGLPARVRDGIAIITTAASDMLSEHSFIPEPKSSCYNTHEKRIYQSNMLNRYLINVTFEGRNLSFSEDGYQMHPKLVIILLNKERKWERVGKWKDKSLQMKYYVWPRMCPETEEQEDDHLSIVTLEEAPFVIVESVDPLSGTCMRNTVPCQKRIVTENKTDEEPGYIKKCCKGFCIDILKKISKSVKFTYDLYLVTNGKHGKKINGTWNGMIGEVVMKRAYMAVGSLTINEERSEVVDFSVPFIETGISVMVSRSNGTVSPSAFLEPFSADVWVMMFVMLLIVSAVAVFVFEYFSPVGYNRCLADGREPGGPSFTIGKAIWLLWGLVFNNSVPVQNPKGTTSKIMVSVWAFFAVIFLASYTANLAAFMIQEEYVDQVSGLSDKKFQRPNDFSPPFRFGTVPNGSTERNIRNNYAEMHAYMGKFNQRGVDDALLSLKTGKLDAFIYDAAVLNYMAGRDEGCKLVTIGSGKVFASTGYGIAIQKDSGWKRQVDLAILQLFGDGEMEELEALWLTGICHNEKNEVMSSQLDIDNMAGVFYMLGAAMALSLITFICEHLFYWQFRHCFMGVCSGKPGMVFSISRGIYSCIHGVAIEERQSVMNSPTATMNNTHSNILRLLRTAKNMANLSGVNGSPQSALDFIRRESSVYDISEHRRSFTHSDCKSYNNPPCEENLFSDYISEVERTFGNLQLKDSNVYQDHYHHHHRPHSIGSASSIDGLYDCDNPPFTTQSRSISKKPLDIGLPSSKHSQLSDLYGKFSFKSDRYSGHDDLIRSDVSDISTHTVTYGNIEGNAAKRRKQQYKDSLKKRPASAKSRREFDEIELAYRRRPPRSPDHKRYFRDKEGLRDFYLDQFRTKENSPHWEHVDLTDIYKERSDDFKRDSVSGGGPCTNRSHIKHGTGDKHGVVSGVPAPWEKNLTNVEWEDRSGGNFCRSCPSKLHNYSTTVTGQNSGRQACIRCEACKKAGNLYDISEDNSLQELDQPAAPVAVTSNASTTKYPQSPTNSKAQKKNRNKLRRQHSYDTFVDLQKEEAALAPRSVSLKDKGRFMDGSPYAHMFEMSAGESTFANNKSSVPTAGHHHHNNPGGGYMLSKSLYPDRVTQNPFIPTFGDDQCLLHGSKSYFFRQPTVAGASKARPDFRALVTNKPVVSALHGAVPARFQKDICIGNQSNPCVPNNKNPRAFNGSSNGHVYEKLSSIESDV
Protocol: Briefly, Hek293 cells stably transfected to express NMDAR subunit 1A/2B were seeded into 384-well microplates and incubated at 37° C. Cells were loaded with dye prior to testing. […] Cells were further incubated for 30-60 minutes at 37° C., and compound activity on calcium flux was measured on a FLIPR Tetra (MDS).

[3] = tested on: glutamate binding to the NMDAR NR2 subunit; experiment: NMDAR radiolabeled ligand displacement assay, CGP-39653; set-up: species or system rat; details: glutamate site
ion channel of the NMDAR = experiment: NMDAR radiolabeled ligand displacement assay, MK-801; type: binding, rat; details: pore channel
sciatic nerve injury = experiment: Mouse model of sciatic nerve injury (toe spreading, electromyography, histology); type: in vivo, mice (Swiss CD-1); details: 1.5 mg/kg once daily per os
Protocol: 6-week-old Swiss (CD-1) male mice were provided by Janvier Labs and housed in an animal facility in a day/night inversed cycle. […] Mice were anesthetized with ketamine chlorohydrate (100 mg/kg) and xylazine (10 mg/kg) and placed on a heating pad. Skin was incised and the sciatic nerve exposed at mid-thigh level and lesioned with fine forceps to ensure peripheral injury. The nerve was crushed twice with a haemostatic forceps (width 1.5 mm; Koenig, Strasbourg, France) with a 90-degree rotation between each crush. The skin incision was sutured, and mice were allowed to recover isolated until the end of anesthesia. The hind limb, contralateral to the lesion, served as uninjured control. Analgesia was induced prior surgery and the following days with bunepronorphine (0.1 mg/kg). […] The loss of nerve function recovered progressively over a 4-5 weeks period after mechanical insult.
At day 0, on day 7, and on day 14 and day 21 post-surgery, the functionality of the nerve fibers was determined with an electromyography apparatus (Dantec, Natus, France), on the ipsilateral side and contralateral side. […] The compound muscle action potential (CMAP) was measured: more precisely the amplitude (mV) and the latency (ms) of the action potential were recorded in gastrocnemius muscle after stimulation of the sciatic nerve. […]

[4] = tested on: NMDA-induced currents / cytosolic Ca^2+ load; details: Ruiz et al. 2020; cited from earlier work
[5] = solid and solution states; cited from earlier work
[6] = human, cited from earlier work
[7] = in vivo

Structure (SMILES)	displacement of radiolabeled ligand MDL-105,519 [1]	IC50 [2] [nM]	IC50 (NMDAR (NR1A/NR2B)) [nM]	displacement of radiolabeled ligand CGP-39653 [3]	displacement of radiolabeled ligand MK-801 (ion channel of the NMDAR)	other results
N=C(N)N/N=C/c1ccc(F)cc1Cl [Compound 3, 2-(2-chloro-4-fluoro-benzylidene)hydrazine-carboximidamide]	unable to displace	250	702	unable to displace	unable to displace	recovery of toe spreading compared to control group (sciatic nerve injury): faster; recovery of toe spreading, median time (printed median survival) (sciatic nerve injury; ipsilateral paw, vehicle usually after 10 days): 8 days
CC(=O)O.N=C(N)N/N=C/c1c(Cl)cccc1Cl [Compound 1, 2-(2,6-dichlorobenzylidene)hydrazine-carboximidamide acetate salt]	unable to displace	400	625	unable to displace	unable to displace	NMDA-induced currents [4]: reducing; NMDA-induced cytosolic Ca^2+ load [4]: reducing; spontaneous isomerization (E/Z) [5]: practically insignificant; adverse events resembling those present in schizophrenia ([6]; controlled and open therapeutic trials): none of the adverse events seen with compound 1 (i.e. guanabenz) resembled those present in schizophrenia; cardiovascular side effects [6]: rare, apart from a decrease in heart rate; reported side effects [6]: drowsiness, dry mouth, dizziness and weakness
C[C@]12N[C@H](Cc3ccccc31)c1ccccc12 [MK-801]			69			
N=C(N)N/N=C/c1ccc(O)cc1Cl [Compound 19, 2-(2-chloro-4-hydroxybenzylidene)hydrazine-carboximidamide]						adverse events resembling those present in schizophrenia ([7]; human): None of the adverse events seen with compound 2 and 19 resembled those present in schizophrenia; compound-related hypotension and dizziness ([7]; human): No clinically significant compound 2 and 19-related hypotension, and dizziness; metabolite status in human [7]: major human metabolite of compound 2
